Results as given in PubChem BioAssay (NCI).
Values joined by “and” are separate entries in the source; they are usually repeats but may differ in a detail not shown here. Identical values can stand only once.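 Protocol summary: plate cells (96-well), add compound at 5 concentrations, incubate 48 h, interpolate endpoints linearly. GI50: concentration for 50% inhibition of growth. Definition used: TGI = concentration required for complete inhibition of growth.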

Tests used:
Assay in all cases: inhibition of tumour cell growth, NCI panel, 48 h
SK-MEL-5 melanoma = system: SK-MEL-5 melanoma
MALME-3M melanoma = system: MALME-3M melanoma
RPMI-8226 leukemia = system: RPMI-8226 leukemia
SK-MEL-28 melanoma = system: SK-MEL-28 melanoma
HS 578T breast = system: HS 578T breast
SN12C renal = system: SN12C renal
T-47D breast = system: T-47D breast
786-0 renal = system: 786-0 renal
SK-OV-3 ovarian = system: SK-OV-3 ovarian
IGROV1 ovarian = system: IGROV1 ovarian
A498 renal = system: A498 renal
OVCAR-4 ovarian = system: OVCAR-4 ovarian
OVCAR-8 ovarian = system: OVCAR-8 ovarian
MOLT-4 leukemia = system: MOLT-4 leukemia
MDA-N = system: MDA-N
OVCAR-5 ovarian = system: OVCAR-5 ovarian
HCC-2998 colon = system: HCC-2998 colon
MCF7 breast = system: MCF7 breast
NCI-H23 lung = system: NCI-H23 lung
PC-3 prostate = system: PC-3 prostate
HOP-92 NSCLC = system: HOP-92 NSCLC
MDA-MB-231 breast = system: MDA-MB-231 breast
M14 melanoma = system: M14 melanoma
LOX IMVI melanoma = system: LOX IMVI melanoma
K-562 leukemia = system: K-562 leukemia
U251 CNS = system: U251 CNS
HOP-62 NSCLC = system: HOP-62 NSCLC
DU-145 prostate = system: DU-145 prostate
SNB-75 CNS = system: SNB-75 CNS
SF-268 CNS = system: SF-268 CNS
BT-549 breast = system: BT-549 breast
HCT-116 colon = system: HCT-116 colon
NCI/ADR-RES ovarian = system: NCI/ADR-RES ovarian
NCI-H522 lung = system: NCI-H522 lung
ACHN renal = system: ACHN renal
NCI-H460 lung = system: NCI-H460 lung
MDA-MB-435 = system: MDA-MB-435
HL-60(TB) leukemia = system: HL-60(TB) leukemia
RXF 393 renal = system: RXF 393 renal
UACC-257 melanoma = system: UACC-257 melanoma
SNB-19 CNS = system: SNB-19 CNS
OVCAR-3 ovarian = system: OVCAR-3 ovarian
EKVX NSCLC = system: EKVX NSCLC
KM12 colon = system: KM12 colon
UACC-62 melanoma = system: UACC-62 melanoma
CCRF-CEM leukemia = system: CCRF-CEM leukemia
TK-10 renal = system: TK-10 renal
HCT-15 colon = system: HCT-15 colon
SF-295 CNS = system: SF-295 CNS
COLO 205 colon = system: COLO 205 colon
NCI-H226 lung = system: NCI-H226 lung
SK-MEL-2 melanoma = system: SK-MEL-2 melanoma
CAKI-1 renal = system: CAKI-1 renal
SF-539 CNS = system: SF-539 CNS
A549 NSCLC = system: A549 NSCLC
SW-620 colon = system: SW-620 colon
UO-31 renal = system: UO-31 renal
HT29 colon = system: HT29 colon

CC(O)CN1c2ccccc2Sc2ccc(Cl)cc21 (stereo unspecified)
TGI (SK-MEL-5 melanoma): > 10 µM
TGI (MALME-3M melanoma): > 10 µM
TGI (RPMI-8226 leukemia): > 10 µM
TGI (SK-MEL-28 melanoma): > 10 µM
TGI (HS 578T breast): > 10 µM
TGI (SN12C renal): > 10 µM
TGI (T-47D breast): > 10 µM
TGI (786-0 renal): > 10 µM
TGI (SK-OV-3 ovarian): > 10 µM
TGI (IGROV1 ovarian): > 10 µM
TGI (A498 renal): > 10 µM
TGI (OVCAR-4 ovarian): > 10 µM
TGI (OVCAR-8 ovarian): > 10 µM
TGI (MOLT-4 leukemia): > 10 µM
TGI (MDA-N): > 10 µM
TGI (OVCAR-5 ovarian): > 10 µM
TGI (HCC-2998 colon): > 10 µM
TGI (MCF7 breast): > 10 µM
TGI (NCI-H23 lung): > 10 µM
TGI (PC-3 prostate): > 10 µM
TGI (HOP-92 NSCLC): > 10 µM
TGI (MDA-MB-231 breast): > 10 µM
TGI (M14 melanoma): > 10 µM
TGI (LOX IMVI melanoma): > 10 µM
TGI (K-562 leukemia): > 10 µM
TGI (U251 CNS): > 10 µM
TGI (HOP-62 NSCLC): > 10 µM
TGI (DU-145 prostate): > 10 µM
TGI (SNB-75 CNS): > 10 µM
TGI (SF-268 CNS): > 10 µM
TGI (BT-549 breast): > 10 µM
TGI (HCT-116 colon): > 10 µM
TGI (NCI/ADR-RES ovarian): > 10 µM
TGI (NCI-H522 lung): > 10 µM
TGI (ACHN renal): > 10 µM
TGI (NCI-H460 lung): > 10 µM
TGI (MDA-MB-435): > 10 µM
TGI (HL-60(TB) leukemia): > 10 µM
TGI (RXF 393 renal): > 10 µM
TGI (UACC-257 melanoma): > 10 µM
TGI (SNB-19 CNS): > 10 µM
TGI (OVCAR-3 ovarian): > 10 µM
TGI (EKVX NSCLC): > 10 µM
TGI (KM12 colon): > 10 µM
TGI (UACC-62 melanoma): > 10 µM
TGI (CCRF-CEM leukemia): > 10 µM
TGI (TK-10 renal): > 10 µM
TGI (HCT-15 colon): > 10 µM
TGI (SF-295 CNS): > 10 µM
TGI (COLO 205 colon): > 10 µM
TGI (NCI-H226 lung): > 10 µM
TGI (SK-MEL-2 melanoma): > 10 µM
TGI (CAKI-1 renal): > 10 µM
TGI (SF-539 CNS): > 10 µM
TGI (A549 NSCLC): > 10 µM
TGI (SW-620 colon): > 10 µM
TGI (UO-31 renal): > 10 µM
TGI (HT29 colon): > 10 µM

O=C(O)C12C3CCC(O3)C1(C(=O)O)C1CCC2O1 (stereo unspecified)
TGI (SK-MEL-5 melanoma): > 100 µM
TGI (MALME-3M melanoma): > 100 µM
TGI (RPMI-8226 leukemia): > 100 µM
TGI (SK-MEL-28 melanoma): > 100 µM
TGI (HS 578T breast): > 100 µM
TGI (SN12C renal): > 100 µM
TGI (T-47D breast): > 100 µM
TGI (786-0 renal): > 100 µM
TGI (SK-OV-3 ovarian): > 100 µM
TGI (IGROV1 ovarian): > 100 µM
TGI (A498 renal): > 100 µM
TGI (OVCAR-8 ovarian): > 100 µM
TGI (MOLT-4 leukemia): > 100 µM
GI50 (MDA-N): 31.3 µM and > 100 µM
TGI (MDA-N): > 100 µM
TGI (OVCAR-5 ovarian): > 100 µM
TGI (HCC-2998 colon): > 100 µM
TGI (MCF7 breast): > 100 µM
TGI (NCI-H23 lung): > 100 µM
TGI (PC-3 prostate): > 100 µM
GI50 (MDA-MB-231 breast): 42.2 µM and 85.8 µM
TGI (MDA-MB-231 breast): > 100 µM
GI50 (M14 melanoma): 16.1 µM and > 100 µM
TGI (M14 melanoma): 29.6 µM and > 100 µM
TGI (LOX IMVI melanoma): > 100 µM
TGI (K-562 leukemia): > 100 µM
TGI (U251 CNS): > 100 µM
TGI (HOP-62 NSCLC): > 100 µM
TGI (DU-145 prostate): > 100 µM
TGI (SNB-75 CNS): > 100 µM
TGI (SF-268 CNS): > 100 µM
TGI (BT-549 breast): > 100 µM
TGI (HCT-116 colon): > 100 µM
TGI (NCI/ADR-RES ovarian): > 100 µM
TGI (NCI-H522 lung): > 100 µM
TGI (ACHN renal): > 100 µM
TGI (NCI-H460 lung): > 100 µM
TGI (MDA-MB-435): > 100 µM
TGI (HL-60(TB) leukemia): > 100 µM
TGI (RXF 393 renal): > 100 µM
TGI (UACC-257 melanoma): > 100 µM
TGI (SNB-19 CNS): > 100 µM
TGI (OVCAR-3 ovarian): > 100 µM
TGI (KM12 colon): > 100 µM
TGI (UACC-62 melanoma): > 100 µM
TGI (CCRF-CEM leukemia): > 100 µM
TGI (TK-10 renal): > 100 µM
TGI (HCT-15 colon): > 100 µM
TGI (SF-295 CNS): > 100 µM
TGI (COLO 205 colon): > 100 µM
TGI (NCI-H226 lung): > 100 µM
TGI (SK-MEL-2 melanoma): > 100 µM
TGI (CAKI-1 renal): > 100 µM
TGI (SF-539 CNS): > 100 µM
TGI (A549 NSCLC): > 100 µM
TGI (SW-620 colon): > 100 µM
TGI (UO-31 renal): > 100 µM
TGI (HT29 colon): > 100 µM
